According to patent publication US20200283807A1, “METHOD AND CELL LINE FOR PRODUCTION OF PHYTOCANNABINOIDS AND PHYTOC[…] IN YEAST” (Hyasynth Biologicals Inc., priority 2017, published 2020):

What was measured:
S. cerevisiae [1] = assay: Effect of hexanoic acid on growth of S. cerevisiae strain HB13 (A600 of culture); type: cell-based, Saccharomyces cerevisiae; details: for growth (A600): HB13-HA, 0.5 mM hexanoic acid
Method: (§1) Yeast cultures were grown in overnight cultures with selective media to provide starter cultures. The resulting starter cultures were then used to inoculate triplicate 50 ml cultures to an optical density at having an absorption at 600 nm (“A600”) of 0.1.
HB13 was cultured in YNB+2% glucose+1.6 g/L 4DO*+0.5 mM hexanoic acid. Hexanoic acid was added at 36 hours of culture. The hexanoic acid was added to separate culture samples at concentrations of 0, 0.5, 1.0 and 3.0 mM. Hexanoic acid is toxic to S. cerevisiae. […] The magnitude of the decrease in S. cerevisiae growth corresponds to the concentration of hexanoic acid in the growth media. The A600 value of culture suspensions quantifies the growth rate, which is shown at hexanoic acid concentrations of 0, 0.5, 1.0 and 3.0 mM in FIG. 12.
(§2) In the presence of 0.5 mM hexanoic acid, HB13 and HB37 were grown for 96 hours with samples taken at the 24h, 36h, 48h, 60, 72h, 84h and 96h points. In the absence of hexanoic acid, HB13 and HB84 were grown and a single time point was taken at 72 hours. HB13 was used as a control in both experiments. The growth media are described above in relation to Tables 8 and 9.

S. cerevisiae [2] = assay: Growth of S. cerevisiae strain HB37 in the presence of hexanoic acid (A600 of culture); type: cell-based, Saccharomyces cerevisiae; details: HB37-HA, 0.5 mM hexanoic acid
Method: as §1, §2
FIGS. 13 to 15 each show the A600 values of the HB37 culture listed in Table 10 (dashed lines with triangle data points).

SMILES: CCCCCC(=O)O [hexanoic acid]
- growth (A600) (S. cerevisiae [1]; 24 h): 5.33
- growth (A600) (S. cerevisiae [1]; 36 h): 5.80
- growth (A600) (S. cerevisiae [1]; 48 h): 4.67
- growth (A600) (S. cerevisiae [1]; 60 h): 6.07
- growth (A600) (S. cerevisiae [1]; 72 h): 8.96
- growth (A600) (S. cerevisiae [1]; 84 h): 7.23
- growth (A600) (S. cerevisiae [1]; 96 h): 8.28
- effect of hexanoic acid supplementation on growth of S. cerevisiae (A600) (S. cerevisiae [1]; HB13, hexanoic acid added at 36 hours at 0, 0.5, 1.0 and 3.0 mM, FIG. 12): Decreased growth
- growth (A600) (S. cerevisiae [2]; 24 h): 3.33
- growth (A600) (S. cerevisiae [2]; 36 h): 3.43
- growth (A600) (S. cerevisiae [2]; 48 h): 3.33
- growth (A600) (S. cerevisiae [2]; 60 h): 3.53
- growth (A600) (S. cerevisiae [2]; 72 h): 4.48
- growth (A600) (S. cerevisiae [2]; 84 h): 4.13
- growth (A600) (S. cerevisiae [2]; 96 h): 4.33
